Experimental data as given in patent US11090290B2, “Clonidine and/or clonidine derivatives for use in the prevention of skin injury resulting from radiotherapy” (MONOPAR THERAPEUTICS INC., priority 2015, dated 2021).

Key:
[1] = test system: skin injury following radiotherapy in patients with head and neck cancer; conditions: mucoadhesive buccal tablet 50 μg once daily, from 1 to 3 days before radiotherapy until its end, up to 8 weeks; 50 to 70 Gray plus platinum-based chemotherapy; placebo group 38.7%
Description: These patients received, within 15 weeks after curative surgery, a cumulative radiation dose of radiation ranging from 50 to 70 Gray in oral cavity, based on a daily dosing between 1.8 and 2.2 Gy, combined with platinum-based chemotherapy, based on a weekly or tri-weekly cycle. Clonidine was administered in the form of a mucoadhesive tablet that was applied into the mouth, on the upper gum, for about 30 seconds, after which it remained in place for several hours. The treatment with clonidine hydrochloride started from 1 to 3 days before radiotherapy until the end of radiotherapy, for up to 8 weeks. Patients were evaluated twice a week during the radiotherapy period, then one month after stop of radiotherapy.

radiation skin injury = conditions: Journal of Clinical Oncology, Vol. 29, No 20, 2011; even worsened skin adverse reactions; cited from earlier work

Molecule: Cl.Clc1cccc(Cl)c1NC1=NCCN1 [clonidine hydrochloride]
- patients showing skin injury after treatment [1]: 25.5%

Molecule: palifermin
- effect on radiation skin injury compared to a placebo (radiation skin injury): not to improve radiation skin injury compared to a placebo
